The target of test [1] is ALK (Homo sapiens, UniProt Q9UM73). The experiment in a line: ALK enzyme assay (HTRF). It counts as biochemical. Conditions: 0.25 nM ALK, 15.0 μM ATP, values given as pIC50 category. On the procedure:
The method measures the ability of the isolated enzyme to catalyse the transfer of the gamma-phosphate from ATP onto the tyrosine residue of a biotinylated synthetic peptide. The extent of tyrosine phosphorylation was measured using an anti-phosphotyrosine antibody, and quantified by homogenous time-resolved fluorescence (HTRF) assay purchased from CisBio (62TK0PEJ).
Reactions were performed in black 384-well polystyrene low volume plates in a final volume of 5 μl.
The reactions were then started by adding the substrate mix. The reactions were allowed to proceed for 120 minutes at 20° C. The reactions were then terminated by the addition of 5 μl HTRF detection mix to each well. The final concentrations of the detection reagents were: 50 mM HEPES (pH7.0); 0.1% BSA; 0.8 M KF; 20 mM EDTA; 1 mM CHAPS; TK-antibody Europium Cryptate; and 41 nM streptavidin-XL665. Assay plates were left unsealed, stacked and incubated at 20° for 60 minutes. Quantification of activity was achieved by counting in an Envision Counter (PerkinElmer).
Compounds under analysis were dissolved in Me2SO to 1.0 mM and serially diluted 1 to 3 with Me2SO through twelve dilutions. 0.05 μl of each concentration was transferred to the corresponding well of an assay plate. This creates a final compound concentration range from 0.00017 to 10 μM.
The data for dose responses were plotted as % Inhibition calculated with the data reduction formula 100*(1-(U1-C2)/(C1-C2)) versus concentration of compound where U is the unknown value, C1 is the average control value obtained for 1% DMSO, and C2 is the average control value obtained for 0.1 M EDTA. Data were fitted with a curve described by:
[formula] where A is the minimum y, B is the maximum y concentration [M], D is the slope factor, and x is the log10 of the compound.
On the technique in general: TR-FRET usually uses a lanthanide donor and a delayed reading to cut background.

Test [2] concerns the target T1, human IR (hIR) (Homo sapiens, UniProt P06213).
T1 construct: containing amino acid residues 979-1382 of human IR; made in house; host or cells: Sf9 cells (baculovirus), same process as hIGF1R
The experiment in a line: TR-FRET kinase assay of purified hIR. The test is classed as biochemical. Conditions: activated hIR 0.5 nM, 10 μM ATP, values given as pIC50 category. On the procedure:
(§1) Time Resolved Fluorescence Resonance Energy Transfer (TR-FRET) assays were carried out on the exemplified compounds as follows:
(§2) Purity is determined by HPLC. The calculated molecular mass of the peptide is 2216 dalton. Tyrosine phosphorylation by human IGF1R (hIGF1R) or human IR (hIR) occurs as indicated (Y*) in the peptide sequence described. Solid peptide sample is dissolved to approximately 1 mM in DMSO, aliquoted, and stored at −20° C. until use. True peptide concentration is determined by amino acid analysis.
hIR: GST-rTEV-IR(979-1382) containing amino acid residues 979-1382 of human IR (as annotated by NCBI accession number NP_000199) is expressed and purified by the same process as hIGF1R. […] Samples, in 25 mM Tris-HCl, 250 mM NaCl, 5% glycerol, 1 mM DTT, pH 7.5, are stored at −80° C. until use.
hIR: Activation of GST-rTEV-IGF-1R(957-1367) is achieved by a 5 minute incubation of hIR (2.7 μM final) with 2 mM ATP in 100 mM HEPES, 10 mM MgCL2, 0.1 mg/ml BSA, at room temperature. Autophosphorylation is stopped by addition of EDTA (to 100 mM final). Aliquoted samples are flash frozen in liquid nitrogen and stored at −80° C. until use.
(§3) Assays are performed in 384-well (Greiner, Catalog No. 784076) microtiter plates. Reaction buffer (50 mM HEPES buffer, pH 7.5; 10 mM MgCL2; 3 mM DTT; 1 mM CHAPS; 0.1 mg/ml BSA) for peptide phosphorylation (10 μl volume) contained, in final concentrations, 500 nM biotinylated peptide substrate; 10 μM ATP; and purified, activated hIGF1R or hIR (0.5 nM). Compounds, titrated in DMSO, are evaluated at eleven concentrations ranging from 50 μM to 0.2 nM. […] Reactions are incubated for 1 hour at room temperature and are stopped by a 5 μl addition of EDTA (to 33 mM). A further addition of 5 μl detection reagents (for final 7 nM Streptavidin-APC (Perkin Elmer #CR^130-150), 1 nM Europium-labeled anti-phosphotyrosine monoclonal antibody (PerkinElmer #AD0067), added in reaction buffer (without DTT), is required for signal generation. After 30 minutes, signal is read on PerkinElmer Viewlux microplate imager or Wallac Victor fluorometer.
(§4) The data for compound concentration responses were plotted as % Inhibition, calculated with the data reduction formula 100*(1-[(U1-C2)/(C1-C2)]), versus concentration of compound, where • U is the unknown value, • C1 is the average control value obtained for DMSO only, and • C2 is the average control value obtained for reactions stopped with EDTA at • t=0.
(§5) Data were fitted to the curve described by: y=((Vmax*x)/(K+x)) where • Vmax is the upper asymptote and • K is the IC50.

For test [3], the target named is T2, human IGF1R (hIGF1R) (Homo sapiens, UniProt P08069).
T2 construct: containing amino acid residues 957-1367 of human IGF1R; made in house; host or cells: Sf9 cells (baculovirus)
The experiment in a line: TR-FRET kinase assay of purified hIGF1R. It counts as biochemical. To be noted: activated hIGF1R 0.5 nM, 10 μM ATP, values given as pIC50 category, read-out: IGF-1R pIC50 (converted). On the procedure:
as §1, §2
hIGF1R: GST-rTEV-IGF-1R(957-1367) containing amino acid residues 957-1367 of human IGF1R (as annotated by National Center for Biotechnology Information (NCBI) accession number NP_000866) is purified from a baculovirus expression system in Sf9 cells using Glutathione Sepharose 4FF column chromatography followed by Sephadex-200 size exclusion column chromatography. […] Samples, in 25 mM Tris-HCl, 250 mM NaCl, 5% glycerol, 1 mM DTT, pH 7.5, are stored at −80° C. until use.
hIGF1R: Activation of GST-rTEV-IGF-1R(957-1367) is achieved by a 4 minute incubation of hIGF1R (2.7 μM final) with 2 mM ATP in 50 mM HEPES, 20 mM MgCL2, 0.1 mg/ml BSA, at room temperature. Autophosphorylation is stopped by addition of EDTA (to 100 mM final). Aliquoted samples are flash frozen in liquid nitrogen and stored at −80° C. until use.
as §3, §4, §5

Test [4] addresses T3, NIH-3T3 cells overexpressing human IGF-1R (Homo sapiens, UniProt P08069).
T3 construct: expressed in transfected cells; host or cells: NIH-3T3 (mouse fibroblasts)
Briefly: IGF-1R cellular autophosphorylation (DELFIA). It counts as cell-based. The procedure: NIH-3T3 cells overexpressing human IGF-1R or IR were plated in 96-well plates (10,000 cells/well) in culture media containing 10% fetal bovine serum and incubated at 37° C. in a 5% CO2 incubator. Twenty four hours post-plating, cells were treated with different concentrations of test compounds ranging from 30 uM to 1.5 nM. Two hours after compound addition, cells were stimulated with either human IGF-1 (30 ng/ml) or insulin (3 ug/ml) for 15 minutes. Cell lysates are analyzed for phosphorylated receptors using dissociation enhanced lanthanide fluor-immuno assay (DELFIA) with anti-IGF-1R (MAB391, R&D Systems, Minneapolis, Minn.) or anti-IRβ (sc-711, Santa Cruz Biotechnology, Santa Cruz, Calif.) capture antibody and europium-labeled anti-pTyr antibody (Eu-N1 PT66, Perkin Elmer, Waltham, Mass.) for detection. The fluorescence signal for cells treated with compounds was expressed as percent relative to 100% stimulation (IGF-1 or insulin stimulated signal).

Values joined by “and” are separate entries in the source; they are usually repeats but may differ in a detail not shown here. Equal values may be shown once.

Chain of ALK (Q9UM73 19-1620): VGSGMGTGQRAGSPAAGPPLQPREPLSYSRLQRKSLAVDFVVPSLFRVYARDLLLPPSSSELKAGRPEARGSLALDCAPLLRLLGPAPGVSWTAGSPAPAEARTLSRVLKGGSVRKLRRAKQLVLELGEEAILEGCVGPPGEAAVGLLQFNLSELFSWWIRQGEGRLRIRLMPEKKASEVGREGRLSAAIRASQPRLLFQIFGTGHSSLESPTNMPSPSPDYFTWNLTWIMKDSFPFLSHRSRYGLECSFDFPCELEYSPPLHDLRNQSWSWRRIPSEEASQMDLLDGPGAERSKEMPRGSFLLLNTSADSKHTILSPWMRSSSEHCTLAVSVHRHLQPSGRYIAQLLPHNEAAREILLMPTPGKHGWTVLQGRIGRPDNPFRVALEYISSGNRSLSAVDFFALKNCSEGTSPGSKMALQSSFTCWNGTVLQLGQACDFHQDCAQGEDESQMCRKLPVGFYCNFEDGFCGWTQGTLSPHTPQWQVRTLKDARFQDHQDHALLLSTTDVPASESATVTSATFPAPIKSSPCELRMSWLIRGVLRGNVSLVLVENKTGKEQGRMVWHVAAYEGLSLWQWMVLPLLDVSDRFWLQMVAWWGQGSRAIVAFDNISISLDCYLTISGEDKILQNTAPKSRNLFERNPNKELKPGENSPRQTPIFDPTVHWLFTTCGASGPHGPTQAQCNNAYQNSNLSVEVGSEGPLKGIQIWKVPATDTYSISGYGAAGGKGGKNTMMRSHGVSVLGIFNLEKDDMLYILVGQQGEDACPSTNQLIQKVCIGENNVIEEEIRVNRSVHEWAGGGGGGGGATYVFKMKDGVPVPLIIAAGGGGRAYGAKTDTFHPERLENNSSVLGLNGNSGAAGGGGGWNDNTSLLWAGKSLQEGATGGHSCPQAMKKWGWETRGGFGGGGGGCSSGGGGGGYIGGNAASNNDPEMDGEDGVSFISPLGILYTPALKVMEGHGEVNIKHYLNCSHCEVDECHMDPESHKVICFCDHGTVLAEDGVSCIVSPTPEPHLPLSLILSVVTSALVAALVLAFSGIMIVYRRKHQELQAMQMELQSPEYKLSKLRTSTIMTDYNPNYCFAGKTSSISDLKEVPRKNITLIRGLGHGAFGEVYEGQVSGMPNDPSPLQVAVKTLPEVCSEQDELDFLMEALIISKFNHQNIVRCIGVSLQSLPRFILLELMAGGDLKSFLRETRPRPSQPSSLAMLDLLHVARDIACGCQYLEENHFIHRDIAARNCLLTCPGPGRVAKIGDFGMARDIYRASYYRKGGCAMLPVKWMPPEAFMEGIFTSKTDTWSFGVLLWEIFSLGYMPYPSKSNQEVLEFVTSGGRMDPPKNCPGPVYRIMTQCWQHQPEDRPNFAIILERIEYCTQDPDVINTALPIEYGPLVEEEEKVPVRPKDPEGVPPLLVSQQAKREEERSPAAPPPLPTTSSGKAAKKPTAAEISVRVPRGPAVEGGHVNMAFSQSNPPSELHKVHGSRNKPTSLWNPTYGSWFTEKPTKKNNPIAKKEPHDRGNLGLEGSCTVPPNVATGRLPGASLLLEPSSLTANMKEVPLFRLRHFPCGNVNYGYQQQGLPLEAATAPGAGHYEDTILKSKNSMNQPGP
T2 sequence (P08069 957-1367): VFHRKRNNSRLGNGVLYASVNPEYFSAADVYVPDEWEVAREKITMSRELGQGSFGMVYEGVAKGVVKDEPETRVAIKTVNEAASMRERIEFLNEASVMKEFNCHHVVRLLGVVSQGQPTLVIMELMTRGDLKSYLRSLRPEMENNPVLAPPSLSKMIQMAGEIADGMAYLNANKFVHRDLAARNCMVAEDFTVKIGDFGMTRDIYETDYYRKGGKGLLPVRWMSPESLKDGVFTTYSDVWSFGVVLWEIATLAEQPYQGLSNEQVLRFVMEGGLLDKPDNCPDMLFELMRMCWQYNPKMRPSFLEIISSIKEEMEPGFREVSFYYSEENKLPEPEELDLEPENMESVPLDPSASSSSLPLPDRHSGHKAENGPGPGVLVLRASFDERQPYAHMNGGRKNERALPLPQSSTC
T1 sequence (P06213 979-1382): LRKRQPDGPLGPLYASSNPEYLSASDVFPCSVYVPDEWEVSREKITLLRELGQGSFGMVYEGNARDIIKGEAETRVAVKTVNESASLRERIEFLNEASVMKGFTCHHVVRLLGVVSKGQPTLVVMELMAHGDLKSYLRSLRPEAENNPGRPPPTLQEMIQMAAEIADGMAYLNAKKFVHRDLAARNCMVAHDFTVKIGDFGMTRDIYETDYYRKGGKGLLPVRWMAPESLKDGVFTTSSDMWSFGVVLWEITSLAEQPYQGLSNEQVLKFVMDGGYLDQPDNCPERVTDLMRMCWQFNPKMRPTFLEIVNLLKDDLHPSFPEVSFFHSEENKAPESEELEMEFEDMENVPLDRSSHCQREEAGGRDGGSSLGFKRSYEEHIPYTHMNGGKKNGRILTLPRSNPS
T3 sequence (P08069 31-1367): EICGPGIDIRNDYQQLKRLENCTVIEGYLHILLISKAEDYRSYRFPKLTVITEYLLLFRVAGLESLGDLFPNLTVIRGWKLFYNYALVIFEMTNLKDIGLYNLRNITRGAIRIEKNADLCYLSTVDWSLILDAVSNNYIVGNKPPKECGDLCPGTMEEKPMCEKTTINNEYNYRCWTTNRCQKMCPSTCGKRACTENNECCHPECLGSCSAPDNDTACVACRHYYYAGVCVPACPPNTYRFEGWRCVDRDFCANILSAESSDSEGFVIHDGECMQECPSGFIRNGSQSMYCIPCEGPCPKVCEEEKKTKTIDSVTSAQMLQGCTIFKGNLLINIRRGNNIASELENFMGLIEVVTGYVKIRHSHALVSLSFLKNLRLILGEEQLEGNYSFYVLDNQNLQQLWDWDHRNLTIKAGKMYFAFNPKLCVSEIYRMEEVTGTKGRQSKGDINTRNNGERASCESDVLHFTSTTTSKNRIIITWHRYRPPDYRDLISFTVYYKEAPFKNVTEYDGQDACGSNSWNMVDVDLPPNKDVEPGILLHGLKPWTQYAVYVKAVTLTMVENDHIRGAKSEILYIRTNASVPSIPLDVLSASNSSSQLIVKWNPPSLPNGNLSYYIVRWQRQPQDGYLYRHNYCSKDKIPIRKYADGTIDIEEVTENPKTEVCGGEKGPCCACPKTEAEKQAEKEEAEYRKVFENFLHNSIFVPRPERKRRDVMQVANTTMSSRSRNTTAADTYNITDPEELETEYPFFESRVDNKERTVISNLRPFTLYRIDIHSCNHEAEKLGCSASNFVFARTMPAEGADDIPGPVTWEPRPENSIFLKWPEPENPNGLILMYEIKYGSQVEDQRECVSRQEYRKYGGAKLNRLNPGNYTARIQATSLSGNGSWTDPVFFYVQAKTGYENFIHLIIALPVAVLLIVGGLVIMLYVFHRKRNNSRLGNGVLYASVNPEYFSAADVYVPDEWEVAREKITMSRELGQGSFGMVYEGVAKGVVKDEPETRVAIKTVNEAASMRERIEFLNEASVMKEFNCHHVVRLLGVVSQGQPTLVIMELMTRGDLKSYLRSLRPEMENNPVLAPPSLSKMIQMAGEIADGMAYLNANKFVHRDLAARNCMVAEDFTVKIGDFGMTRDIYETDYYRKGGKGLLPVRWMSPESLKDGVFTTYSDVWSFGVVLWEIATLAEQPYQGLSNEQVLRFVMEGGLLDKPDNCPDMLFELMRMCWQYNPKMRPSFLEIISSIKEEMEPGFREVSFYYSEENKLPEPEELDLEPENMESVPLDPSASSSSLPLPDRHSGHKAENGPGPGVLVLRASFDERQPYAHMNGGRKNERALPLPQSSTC

Regarding `CCCN1CCC=C(c2ccc(Nc3nc(Nc4cc(C)ccc4C(N)=O)c4cc[nH]c4n3)c(C)c2)C1` [Example 35, 4-methyl-2-[(2-{[2-methyl-4-(1-propyl-1,2,5,6-tetrahydro-3-pyridinyl)phenyl]amino}-1H-pyrrolo[2,3-d]pyrimidin-4-yl)amino]benzamide], the IC50 is 5.01 to 200 nM in test [1], 5.01 to 158 nM in test [2] and 5.01 to 200 nM in test [3].
Consider `Cc1ccc(Nc2nc(Nc3cc(NC(=O)CN(C)C)ccc3C)nc3[nH]ccc23)c(C(N)=O)c1` [Example 34, 2-{[2-({5-[(N,N-dimethylglycyl)amino]-2-methylphenyl}amino)-1H-pyrrolo[2,3-d]pyrimidin-4-yl]amino}-5-methylbenzamide], for which the IC50 is 5.01 to 200 nM in test [1], 1.26 to 3.98 nM in test [2] and 5.01 to 200 nM in test [3].
With `CNC(=O)c1c(F)cccc1Nc1nc(Nc2cc3c(cc2OC)CCN(CCF)C3)nc2[nH]ccc12` [Example 234, 2-fluoro-6-[(2-{[2-(2-fluoroethyl)-6-(methyloxy)-1,2,3,4-tetrahydro-7-isoquinolinyl]amino}-1H-pyrrolo[2,3-d]pyrimidin-4-yl)amino]-N-methylbenzamide], the results for the IC50 in test [1], in test [2] and in test [3] were 0.251 to 1 nM, 1.26 to 3.98 nM and 5.01 to 200 nM, respectively.
Consider `CCCN1CCC=C(c2ccc(Nc3nc(Nc4ccccc4C(N)=O)c4cc[nH]c4n3)c(C)c2)C1` [Example 1, 2-[(2-{[2-methyl-4-(1-propyl-1,2,5,6-tetrahydro-3-pyridinyl)phenyl]amino}-1H-pyrrolo[2,3-d]pyrimidin-4-yl)amino]benzamide], for which the figures for the IC50 in test [1], in test [2] and in test [3] were 0.251 to 1 nM, 5.01 to 158 nM and 5.01 to 200 nM, respectively.
As for `CCCN1CCC=C(c2ccc(Nc3nc(Nc4cccc(F)c4C(N)=O)c4cc[nH]c4n3)c(C)c2)C1` [Example 40, 2-fluoro-6-[(2-{[2-methyl-4-(1-propyl-1,2,5,6-tetrahydro-3-pyridinyl)phenyl]amino}-1H-pyrrolo[2,3-d]pyrimidin-4-yl)amino]benzamide], the results for the IC50 in test [1], in test [3] and in test [4] were 1.26 to 3.98 nM, 1.26 to 3.98 nM and 100 to 500 nM, respectively.
Take `CNC(=O)c1c(F)cccc1Nc1nc(Nc2cc3c(cc2OC)CCN3C(=O)CN(C)CCOC)nc2[nH]ccc12` [Example 169, 2-fluoro-N-methyl-6-[(2-{[1-{N-methyl-N-[2-(methyloxy)ethyl]glycyl}-5-(methyloxy)-2,3-dihydro-1H-indol-6-yl]amino}-1H-pyrrolo[2,3-d]pyrimidin-4-yl)amino]benzamide]: the IC50 in test [1] was 1.26 to 3.98 nM and 5.01 to 200 nM; in test [2], 1.26 to 3.98 nM; in test [3], 1.26 to 3.98 nM.
As for `COCCN(C)CC(=O)N1CCc2cc(OC)c(Nc3nc(Nc4cccc(F)c4C(N)=O)c4cc[nH]c4n3)cc21` [Example 170, 2-fluoro-6-[(2-{[1-{N-methyl-N-[2-(methyloxy)ethyl]glycyl}-5-(methyloxy)-2,3-dihydro-1H-indol-6-yl]amino}-1H-pyrrolo[2,3-d]pyrimidin-4-yl)amino]benzamide], the IC50 in test [1] is 1.26 to 3.98 nM; in test [2], 0.251 to 1 nM; in test [3] it was 0.251 to 1 nM.
Consider `COc1cc2c(cc1Nc1nc(Nc3cccc4c3C(=O)NC4)c3cc[nH]c3n1)N(C(=O)CN1CCCC1)CCC2` [Example 201, 7-[(2-{[6-(methyloxy)-1-(1-pyrrolidinylacetyl)-1,2,3,4-tetrahydro-7-quinolinyl]amino}-1H-pyrrolo[2,3-d]pyrimidin-4-yl)amino]-2,3-dihydro-1H-isoindol-1-one], for which the IC50 in test [1], in test [2] and in test [3] was 0.251 to 1 nM throughout.
Regarding `COc1ccc(CS(C)(=O)=O)cc1Nc1nc(Nc2ccccc2C(N)=O)c2cc[nH]c2n1` [Example 20, 2-{[2-({2-(methyloxy)-5-[(methylsulfonyl)methyl]phenyl}amino)-1H-pyrrolo[2,3-d]pyrimidin-4-yl]amino}benzamide], the IC50 in test [1] is 5.01 to 200 nM; in test [2], 5.01 to 158 nM; in test [3] it was 5.01 to 200 nM.
Turning to `CNC(=O)c1c(F)cccc1Nc1nc(Nc2cc3c(cc2OC)CCN3C(=O)[C@@H]2CCCN2C)nc2[nH]ccc12` [Example 128, 2-fluoro-N-methyl-6-[(2-{[5-(methyloxy)-1-(1-methyl-L-prolyl)-2,3-dihydro-1H-indol-6-yl]amino}-1H-pyrrolo[2,3-d]pyrimidin-4-yl)amino]benzamide], the values for the IC50 in test [1], in test [2] and in test [3] were 5.01 to 200 nM, 5.01 to 158 nM and 5.01 to 200 nM, respectively.
With `CNC(=O)c1c(F)cccc1Nc1nc(Nc2cc3c(cc2Cl)CCN3C(=O)CN(C)C)nc2[nH]ccc12` [Example 131, 2-[(2-{[5-chloro-1-(N,N-dimethylglycyl)-2,3-dihydro-1H-indol-6-yl]amino}-1H-pyrrolo[2,3-d]pyrimidin-4-yl)amino]-6-fluoro-N-methylbenzamide], the IC50 in test [1], in test [2] and in test [3] was 1.26 to 3.98 nM in each case.

Source of the values: US7981903B2, “2-[2-{phenylamino}-1H-pyrrolo[2,3-D]pyrimidin-4-yl)amino] benzamide derivatives as IGF-1R inhibitors for the treatment of cancer” (GlaxoSmithKline LLC, priority 2007, dated 2011).
